{"source": "ChEMBL document CHEMBL6074642", "about": "“Natural and Bioinspired Lipidic Alkynylcarbinols as Leishmanicidal, Antiplasmodial, Trypanocidal, Fungicidal, Antibacterial, and Antimycobacterial Agents” (J Nat Prod, 2024)", "key": {"[1]": {"system": "Phytophthora capsici", "assay": "Antifungal activity against Phytophthora capsici", "assay_type": "functional, organism-based"}, "[2]": {"system": "Monilinia fructigena", "assay": "Antifungal activity against Monilinia fructigena", "assay_type": "functional, organism-based"}, "[3]": {"system": "Mycobacterium tuberculosis", "assay": "Antimycobacterial activity against Mycobacterium tuberculosis H37Ra ATCC 25177 assessed as reduction in bacterial growth after 7 days by resazurin microtiter assay", "assay_type": "functional", "conditions": "H37Ra ATCC 25177, 168 h, time 7 day"}, "[4]": {"system": "Mycobacterium tuberculosis", "assay": "Antimycobacterial activity against Mycobacterium tuberculosis Erdman", "assay_type": "functional"}, "[5]": {"system": "Mycobacterium tuberculosis", "assay": "Antimycobacterial activity against Mycobacterium tuberculosis H37Rv", "assay_type": "functional"}, "[6]": {"system": "Mycobacterium intracellulare", "assay": "Antibacterial activity against Mycobacterium intracellulare", "assay_type": "functional, organism-based"}, "[7]": {"system": "Pseudomonas aeruginosa", "assay": "Antibacterial activity against Pseudomonas aeruginosa assessed as reduction in bacterial growth incubated for 24 hrs by broth microdilution method", "assay_type": "functional, organism-based"}, "[8]": {"system": "Mycobacterium tuberculosis", "assay": "Antimycobacterial activity against Mycobacterium tuberculosis H37Ra", "assay_type": "functional, organism-based"}, "[9]": {"system": "Bipolaris sorokiniana", "assay": "Antifungal activity against Cochliobolus sativus", "assay_type": "functional, organism-based"}, "[10]": {"system": "Leishmania amazonensis", "assay": "Antileishmanial activity against leishmania amazonensis promastigotes MHOM/BR/77/LTB0016 assessed as assessed as parasite growth inhibition incubated for 72 hrs by Alamar Blue assay", "assay_type": "functional, organism-based", "conditions": "MHOM/BR/77/LTB0016, 72 h"}, "[11]": {"system": "Mycobacterium tuberculosis", "assay": "Antimycobacterial activity against Mycobacterium tuberculosis Erdman ATCC 35801", "assay_type": "functional"}, "[12]": {"system": "Escherichia coli", "assay": "Antibacterial activity against Escherichia coli DC2 assessed as reduction in bacterial growth", "assay_type": "functional"}, "[13]": {"system": "Staphylococcus aureus", "assay": "Antibacterial activity against Staphylococcus aureus SAP0017 assessed as reduction in bacterial growth", "assay_type": "functional"}, "[14]": {"system": "Staphylococcus aureus", "assay": "Antimicrobial activity against methicillin-sensitive Staphylococcus aureus K147 assessed as reduction in microbial growth", "assay_type": "functional"}, "[15]": {"system": "Bacillus subtilis", "assay": "Antibacterial activity against Bacillus subtilis assessed as reduction in microbial growth", "assay_type": "functional"}, "[16]": {"system": "Bacillus subtilis", "assay": "Antibacterial activity against Bacillus subtilis PY79 assessed as reduction in bacterial growth", "assay_type": "functional, organism-based"}, "[17]": {"system": "Plasmodium falciparum", "assay": "Antiparasitic activity against Plasmodium falciparum K1 assessed as reduction in parasite growth", "assay_type": "functional, organism-based"}, "[18]": {"system": "Leishmania donovani", "assay": "Antileishmanial activity against Leishmania donovani amastigotes infected in J774 macrophage assessed as inhibition of parasite growth incubated for 48 hrs by luciferase assay", "assay_type": "functional, organism-based", "conditions": "J774, 48 h"}, "[19]": {"system": "Mycobacterium tuberculosis", "assay": "Antibacterial activity against Mycobacterium tuberculosis H37Ra assessed as reduction in bacterial growth incubated for 14 days by CLSI protocol based method", "assay_type": "functional", "conditions": "336 h, time 14 day"}, "[20]": {"system": "Mycolicibacterium smegmatis", "assay": "Antimycobacterial activity against Mycobacterium smegmatis mc2 155 assessed as reduction in bacterial growth", "assay_type": "functional"}, "[21]": {"system": "Mycolicibacterium fortuitum", "assay": "Antimycobacterial activity against Mycobacterium fortuitum", "assay_type": "functional"}, "[22]": {"system": "Mycolicibacterium aurum", "assay": "Antimycobacterial activity against Mycobacterium aurum", "assay_type": "functional"}, "[23]": {"system": "Mycobacterium tuberculosis", "assay": "Antitubercular activity against Mycobacterium tuberculosis H37Ra assessed as inhibition of bacterial growth", "assay_type": "functional"}, "[24]": {"system": "Alternaria kikuchiana", "assay": "Antifungal activity against Alternaria kikuchiana", "assay_type": "functional, organism-based"}, "[25]": {"system": "Escherichia coli", "assay": "Antibacterial activity against Escherichia coli", "assay_type": "functional"}, "[26]": {"system": "Candida albicans", "assay": "Antifungal activity against Candida albicans ATCC 10231 assessed as fungal growth inhibition", "assay_type": "functional"}, "[27]": {"system": "Mycobacterium tuberculosis", "assay": "Antimycobacterial activity against Mycobacterium tuberculosis H37Rv assessed as inhibition of bacterial growth by MABA assay", "assay_type": "functional"}, "[28]": {"system": "Mycobacterium tuberculosis", "assay": "Antimycobacterial activity against Mycobacterium tuberculosis Erdman assessed as inhibition of bacterial growth by MABA assay", "assay_type": "functional"}}, "note": "pIC50: −log10 of the molar value."}
{"molecule": "C=CC(O)C#CC#CC(O)c1cccs1", "note": "(stereo not given)", "values": [{"measurement": "EC50", "setting": "[1]", "result": 2.1, "unit": "µg/mL"}, {"measurement": "EC50", "setting": "[2]", "result": 4, "unit": "µg/mL"}]}
{"molecule": "CCCC/C=C/C#CC#CCCCCCCCC(=O)O", "note": "[EXOCARPIC ACID]", "values": [{"measurement": "MIC", "setting": "[3]", "result": 20, "unit": "µg/mL"}]}
{"molecule": "C=CC(O)C#CC#CC(O)/C=C\\CCCCCCCCOC(C)=O", "note": "(stereo not given)", "values": [{"measurement": "MIC", "setting": "[4]", "result": 1.4, "unit": "µg/mL"}, {"measurement": "MIC", "setting": "[5]", "result": 25, "unit": "µg/mL"}]}
{"molecule": "CCCCCCCC/C=C\\CCCCCCCCC[C@@H](O)C#CC#CCO", "values": [{"measurement": "pIC50", "setting": "[6]", "result": 4.77}, {"measurement": "pIC50", "setting": "[7]", "result": 5.54}]}
{"molecule": "CCCC/C=C/C#CC#CC(O)CCCCCCC(=O)O", "note": "(stereo not given)", "values": [{"measurement": "IC50", "setting": "[8]", "result": 25, "unit": "µg/mL"}]}
{"molecule": "C=C[C@@H](O)C#CC#C/C=C/[C@H](O)CCCCCCCC", "values": [{"measurement": "EC50", "setting": "[9]", "result": 37, "unit": "µg/mL"}]}
{"molecule": "C=CC(O)C#CC#CC(O)/C=C\\CCCCCCC", "note": "(stereo not given)", "values": [{"measurement": "pIC50", "setting": "[10]", "result": 5.24}]}
{"molecule": "C=C[C@H](O)C#CC#C[C@@H](O)/C=C\\CCCCCCC", "values": [{"measurement": "MIC", "setting": "[11]", "result": 6.2, "unit": "µg/mL"}, {"measurement": "MIC", "setting": "[12]", "result": 2.5, "unit": "µg/mL"}, {"measurement": "MIC", "setting": "[4]", "result": 6, "unit": "µg/mL"}, {"measurement": "MIC", "setting": "[13]", "result": 25, "unit": "µg/mL"}, {"measurement": "MIC", "setting": "[5]", "result": 27, "unit": "µg/mL"}, {"measurement": "MIC", "setting": "[14]", "result": 12, "unit": "µg/mL"}, {"measurement": "MIC", "setting": "[15]", "result": 12, "unit": "µg/mL"}]}
{"molecule": "C=C[C@H](O)C#CC#C[C@H](O)c1cccs1", "values": [{"measurement": "EC50", "setting": "[1]", "result": 2.7, "unit": "µg/mL"}]}
{"molecule": "CCCCCCCCCCCCCCCC[C@@H](O)C#CC#CCO", "values": [{"measurement": "pIC50", "setting": "[6]", "result": 5.11}, {"measurement": "pIC50", "setting": "[7]", "result": 5.72}]}
{"molecule": "C#CC(O)/C=C/C(O)CCCC(O)CC#CC(O)C#CC(O)CCCC(=O)CCCCC/C=C/C(O)CCCCCCCCCCCCC(O)C(O)C(O)C#CC(=O)O", "note": "(stereo not given)", "values": [{"measurement": "IC50", "setting": "[16]", "result": 12, "unit": "µg/mL"}]}
{"molecule": "C=C[C@H](C#CC#C[C@@H](O)CCCCCCCCC)OC(C)=O", "values": [{"measurement": "IC50", "setting": "[17]", "result": 8.15, "unit": "µg/mL"}, {"measurement": "pIC50", "setting": "[18]", "result": "< 5.00"}]}
{"molecule": "C=C[C@@H](O)C#CC#CC/C=C\\CCCCCCC", "values": [{"measurement": "MIC", "setting": "[19]", "result": 6.25, "unit": "µg/mL"}, {"measurement": "MIC", "setting": "[20]", "result": 12, "unit": "µg/mL"}, {"measurement": "pIC50", "setting": "[8]", "result": 4.82}, {"measurement": "MIC", "setting": "[21]", "result": 16, "unit": "µM"}, {"measurement": "MIC", "setting": "[22]", "result": 16, "unit": "µM"}, {"measurement": "MIC", "setting": "[23]", "result": 3.73, "unit": "µg/mL"}]}
{"molecule": "C=C[C@@H](O)C#CC#CC[C@H]1O[C@H]1CCCCCCC", "values": [{"measurement": "MIC", "setting": "[19]", "result": 6.13, "unit": "µg/mL"}, {"measurement": "MIC", "setting": "[20]", "result": 25, "unit": "µg/mL"}]}
{"molecule": "CC(C)CCCC/C=C\\CCCCCCCCC[C@@H](O)C#CC#CCO", "values": [{"measurement": "pIC50", "setting": "[6]", "result": 5.00}, {"measurement": "pIC50", "setting": "[7]", "result": 5.77}]}
{"molecule": "C=C[C@@H](O)C#CC#CC/C=C\\CCCCCCCC", "values": [{"measurement": "EC50", "setting": "[24]", "result": 48, "unit": "µg/mL"}]}
{"molecule": "CC[C@H](O)C#CC#C[C@@H](O)/C=C\\CCCCCCCCOC(C)=O", "note": "[OPLOPANDIOL ACETATE]", "values": [{"measurement": "MIC", "setting": "[25]", "result": "> 50", "unit": "µg/mL"}]}
{"molecule": "C#CC(O)/C=C/C(O)CCCC(O)CC#CC(O)C#CCCCCC(=O)CCCCC/C=C/C(O)CCCCCCCCCCCCCC(O)C(O)C#CC(=O)O", "note": "(stereo not given)", "values": [{"measurement": "IC50", "setting": "[16]", "result": 12, "unit": "µg/mL"}]}
{"molecule": "C=C[C@@H](O)C#CC#C[C@H](O)c1cccs1", "values": [{"measurement": "EC50", "setting": "[1]", "result": 31, "unit": "µg/mL"}]}
{"molecule": "CCCCCCC/C=C\\[C@H](O)C#CC#C[C@@H](O)CC", "note": "[OPLOPANDIOL]", "values": [{"measurement": "MIC", "setting": "[26]", "result": 12, "unit": "µg/mL"}]}
{"molecule": "C=C[C@H](O)C#CC#C[C@@H](O)c1cccs1", "values": [{"measurement": "EC50", "setting": "[1]", "result": 3.6, "unit": "µg/mL"}]}
{"molecule": "C#CC(O)/C=C/C(O)CCCC(O)C(O)C#CC(O)C#CCCCCC(=O)CCCCC/C=C/C(O)CCCCCCCCCCCCCC(O)C(O)C#CC(=O)O", "note": "(stereo not given)", "values": [{"measurement": "IC50", "setting": "[16]", "result": 25, "unit": "µg/mL"}]}
{"molecule": "C=CC(O)C#CC#CC(O)C1OC1CCCCCCC", "note": "(stereo not given)", "values": [{"measurement": "MIC", "setting": "[27]", "result": "> 60", "unit": "µg/mL"}, {"measurement": "MIC", "setting": "[28]", "result": "> 60", "unit": "µg/mL"}]}
{"molecule": "C=CC(O)C#CC#C/C=C/C(O)CCCCCCC", "note": "(stereo not given)", "values": [{"measurement": "pIC50", "setting": "[10]", "result": 5.24}]}
{"molecule": "CCCCCC/C=C\\CCCCCCCCC[C@@H](O)C#CC#CCO", "values": [{"measurement": "pIC50", "setting": "[6]", "result": 4.64}, {"measurement": "pIC50", "setting": "[7]", "result": 5.59}]}
